From patent US9207219B1, “Fully automated analytical method for determination of chloroethers in water and urine sample” (priority 2014, dated 2015)
Converted amounts (≈) assume the structure as drawn.

Assays:
[1] = Concentration of CEs in human urine determined by fully automated FA-SPME/GC-MS; conditions: urine of a volunteer working at water desalination facility; urine diluted 1:1 with ultrapure water before extraction
Description: Analyses were performed using a gas chromatograph (Agilent technologies, 7890A GC) coupled with a quadrupole mass selective spectrometer (Agilent technologies, 5975C) equipped with an inert ion source and provided with a split-splitless injection port. An A HP-5 GC fused silica capillary column (Agilent 19091J-413; 30 m×320 μm ID×0.25 μm thickness) was selected to separate the analytes. CTC CombiPAL autosampler (GC sampler 80, Zwingen, Switzerland) was used for the full automated FA-SPME. Ultra high purity helium (99.999%, Abdulah Hashim, Al-Khobar, Saudi Arabia) was used as the carrier gas at a flow rate of 1.3 mL min^−1. The samples were injected in the splitless mode. The temperature program used for the analyses was as follows: the initial temperature was 40° C. held 1 min which was then increased to 118° C. at 10° C. min^−1 and held for 3 min, then to 190 C at 15° C. min^−1 and held for 4 min. The total run time was 18.6 min. The injection port, ion source and interface temperatures were 280° C., 230° C., and 250° C., respectively. For qualitative determinations, the MSD was operated in full-scan mode from m/z 50 to 550 and selective ion monitoring mode was used for the quantification of the analytes. […]
The applicability of the proposed FA-SPME technique for real water and urine sample matrices were evaluated. […]

[2] = cited from earlier work
[3] = cited from earlier work; remark: listed apart in the source

Structure (SMILES)	concentration in real sample, Human urine [1] [ng/mL]	Solubility at 20-25° C. [2] [µg/mL]	Vapor pressure at 20-25° C. [2] [mmHg]	Henry's law constant at 20° C. [2]	Diffusion coefficient in air [2] [cm^2 s^−1]	Diffusion coefficient in water [2] [cm^2 s^−1]	minimum half-life in water [3] [years]
ClCCOCCCl [BCEE, Bis(2-chloroethyl)ether]	30.8	10200 (≈ 71.3 mM)	1.34	0.00089	0.069	7.53E−06	
ClCCOCOCCCl [BCEM, Bis(2-chloroethoxy)methane]	11.5	1353.4 (≈ 7.82 mM)	0.179	0.001	0.058	7.11E−06	≥ 2
